Results from US20090214637A1, “Novel Gene Therapy Approach For Treating The Metabolic Disorder Obesity” (NEUROLOGIX, INC., priority 2007, published 2009).

How the values were obtained:
[1] = 2-DG induced food intake versus saline; type: in vivo, mice; details: over 4 h, compared to saline
Description: FIG. 8A-B depicts the effect of Hip2 silencing on the response to 2-deoxy-D-glucose (2-DG) induced hypoglycemia.
Silencing of Hip2 was achieved by AAV vectors encoding the Hip2 small hairpin RNA (Hip2 shRNA) delivered into the VMN region of the brain via injection. AAV vectors encoding the luciferase shRNA were used as controls. […] Furthermore, reduction of Hip2 levels also had no effect on the ability of the VMN neurons to sense glucose levels in blood.

dissociated VMN neurons = assay: Depolarization of dissociated VMN neurons by 17β-estradiol; type: cell-based, mice; details: 1 nM or 10 nM
primary VMN neurons = assay: Number of glucose sensing neurons after estradiol, calcium imaging; type: cell-based; details: 1 nM, 24 h, primary VMN neurons from female rats
Protocol: Overexpression of ERα in a murine hypothalamic cell line […] (FIG. 9A-C) has led to upregulation of glucose sensing genes. In order to determine whether these effects are also dependent on estrogen, primary VMN neurons from female rats were treated 17-β-estradiol at physiological levels (1 nM) and the number of glucose sensing neurons were measured in 24 h using calcium imaging.

| SMILES | food intake [1] | depolarization of cells with nuclear ERα staining (dissociated VMN neurons) | depolarization of membrane ERα-immunoreactive cells (dissociated VMN neurons; dissociated VMN neurons from postnatal female mice) | number of glucose-excited neurons (primary VMN neurons) |
| --- | --- | --- | --- | --- |
| O=CC[C@@H](O)[C@H](O)[C@H](O)CO [2-DG, 2-deoxy-D-glucose] | significantly increased food intake | – | – | – |
| C[C@]12CC[C@@H]3c4ccc(O)cc4CC[C@H]3[C@@H]1CC[C@@H]2O [17β-estradiol] | – | did not depolarize | majority of membrane ERα-immunoreactive cells depolarized | increased the number of glucose-excited neurons |
